Here are results for eleven molecules from ChEMBL document CHEMBL2203223, “Identification of novel mPGES-1 inhibitors through screening of a chemical library” (Bioorg Med Chem Lett, 2012).

The first test addresses T1, Prostaglandin E synthase (Mus musculus) (UniProt Q9JM51).
T1 sequence (whole entry): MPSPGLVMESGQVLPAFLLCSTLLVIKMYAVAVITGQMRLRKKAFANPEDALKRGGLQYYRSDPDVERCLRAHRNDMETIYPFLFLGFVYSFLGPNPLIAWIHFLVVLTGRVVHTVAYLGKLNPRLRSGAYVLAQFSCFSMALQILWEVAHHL
Briefly: Inhibition of microsomal PGES1 in mouse RAW264.7 cells assessed as inhibition of LPS-induced PGE2 production at 1 uM incubated for 1 hr prior to LPS challenge measured after 24 hrs by enzyme immunoassay. The class given is cell-based.
By inhibition is commonly meant the share of the control response that was lost under treatment. As for `O=C(Oc1ccccc1)N(NS(=O)(=O)c1ccccc1)c1ccccc1`, the inhibition was 59.9%.

For a further test, the target named is T1, Prostaglandin E synthase (Mus musculus). Briefly: Inhibition of microsomal PGES1 in mouse RAW264.7 cells assessed as inhibition of LPS-induced PGE2 production at 10 uM incubated for 1 hr prior to LPS challenge measured after 24 hrs by enzyme immunoassay. It counts as cell-based.
As to `O=C(Oc1ccccc1)N(NS(=O)(=O)c1ccccc1)c1ccccc1`, the inhibition stood at 93.3%.

The next test has as its target T2, Prostaglandin E synthase (Homo sapiens) (UniProt O14684).
T2 sequence (whole entry): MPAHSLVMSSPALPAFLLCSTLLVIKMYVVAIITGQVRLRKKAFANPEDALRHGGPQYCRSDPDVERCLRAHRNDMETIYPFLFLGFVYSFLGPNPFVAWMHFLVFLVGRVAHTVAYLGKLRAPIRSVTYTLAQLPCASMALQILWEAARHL
Briefly: Inhibition of microsomal PGES1 at 10 uM.
`Cc1n[nH]c(=S)n(/N=C/c2cccc([N+](=O)[O-])c2)c1=O` had an inhibition of 90%.

For `O=C(C=C1c2ccccc2-c2ccccc21)NNC(=O)N(c1ccccc1)c1ccccc1`, the inhibition was 90%. The same measure, in the same setting: then `O=C1C(=O)N(c2ccccc2)c2ccccc21`, with 90%. As for `CNC(=O)/C(=N/OC)c1ccccc1CO/N=C(/C)c1cccc(O/C(F)=C(\c2ccc(OC)cc2)C(F)(F)F)c1`, the inhibition is 90%. In turn, `CN1C(=O)C(NC(=O)Nc2ccccc2Cl)N(C)C(=O)c2ccccc21` (racemic) registered an inhibition of 90%. The same measure, in the same setting: with `Cc1cccc(NC(=S)N/N=C/c2cccc([N+](=O)[O-])c2)c1` the figure was 90%.

Another test deals with T2, Prostaglandin E synthase (Homo sapiens). Briefly: Inhibition of microsomal PGES1 at 25 uM.
`COc1ccc(OC(=O)Nc2ccccc2)cc1` registered an inhibition of more than 80%.

As for `O=C1Sc2ccccc2C1=O`, the inhibition was more than 80%. `CN1C(=O)C(N)NC(=O)c2ccccc21` (racemic) returned an inhibition of more than 80%.

As for `CNC(=O)/C(=N\OC)c1ccccc1O`, the inhibition is more than 80%.
